How the values were obtained:
[1] = system: Respiratory syncytial virus recombinant with luciferase (RSV-Luc5); assay: NHBE RSV-Luc5 384-well assay (EC50 RSVFLUC NHBE-384); format: cell-based; conditions: human respiratory syncytial virus, 72 h, read-out: EC50 RSV FLUC NHBE 384 V2 (per Ex. U)
From the text: Example U. NHBE RSV-Luc5 384-Well Assay (EC50 RSVFLUC NHBE-384)
Normal Human Bronchial Epithelial (NHBE) cells were purchased from Lonza (Walkersville, MD Cat #CC2540) and maintained in BEGM Bronchial Epithelial Cell Growth Medium BulletKit (Lonza CC-3170).
Cells were thawed, expanded, and were used for experiments at passage 2. Respiratory syncytial virus recombinant with luciferase (RSV-Luc5) (≥1×107 Infectious Units/ml (IU/ml) determined by TCID50) was purchased from Microbiologics (Saint Cloud, MN). Viral replication was determined in NHBE cells in the following manner.
Compounds are prepared in 100% DMSO in 384-well polypropylene plates (Greiner, Monroe, NC, Cat #784201) with 8 compounds per plate in grouped replicates of 4 at 10 serially diluted concentrations (1:3). The serially diluted compounds were transferred to low dead volume Echo plates (Labcyte, Sunnyvale, CA, Cat #LP-0200).
The test compounds were spotted to 384-well assay plates (Greiner, Monroe, NC, Cat #781091) at 200 nL per well. NHBE cells were harvested and suspended in BEGM Bronchial Epithelial Cell Growth Medium BulletKit and seeded to the pre-spotted assay plates at 5,000 cells per well in 30 μL. RSV-Luc5 virus was diluted in BEGM Bronchial Epithelial Cell Growth Medium BulletKit at 500,000 Infectious Units (IU) per mL and 10 μL per well was added to the assay plates containing cells and compounds, for an MOI of 1. The assay plates were incubated for 3 days at 37° C. and 5% CO2. At the end of incubation, One-Glo reagent (Promega, Madison, WI, Cat #E6120) was prepared. The assay plates and One-Glo reagent were equilibrated to room temperature for at least 15 minutes. 40 μL per well of One-Glo reagent was added and the plates were incubated at room temperature for 15 minutes before reading the luminescence signal on an En Vision multimode plate reader (Perkin Elmer, Waltham, MA). Remdesivir was used as positive control and DMSO was used as negative control. Values were normalized to the positive and negative controls (as 0% and 100% replication, respectively) and data was fitted using non-linear regression analysis by Gilead's dose response tool. The EC50 value for each compound was defined as the concentration reducing the viral replication by 50%.

RSV strain A2 = assay: RSV Cellomics assay for RSV A2 antiviral activity (EC50-RSV-Hep2-96-Cellomics); format: cell-based; conditions: human respiratory syncytial virus, HEp-2, 72 h; Hep2 cells, RSV strain A2, MOI=0.05, 3 days, RSV F protein immunofluorescence; read-out: EC50-RSV-HEp2-96-Cellomics Example B1
Method: Example B1: RSV Cellomics Assay for RSV A2 Antiviral Activity (EC50-RSV-Hep2-96-Cellomics)
8×10^3 Hep2 cells are seeded into 96 well plates in 100 μL of media (DMEM supplemented with GlutaMAX, 10% FBS and Pen/Strep) and briefly spun at 50×g for 1 minute to attach cells. Cells were further allowed to attach with overnight incubation at 37° C.+5% CO2. The following day, the media was aspirated and 100 μL of fresh DMEM media containing 2% FBS was added. A three-fold dilution series of compounds of interest are then added to the plate using the Tecan D300e dispenser and the plate is normalized to the well with the highest volume of DMSO. The cells are next infected by adding 100 μL of media containing RSV strain A2 at an MOI=0.05 and the plates incubated for 3 days at 37° C.+5% CO2. Following the incubation, the media is removed, and the cells are washed once with 250 μL PBS and fixed with 250 μL ice-cold 100% methanol for 10 minutes at 4 C. The methanol is then removed and the plates air dried for 5 minutes and then washed once with 250 μL PBS to remove any residual methanol. The wells are then blocked 60 μL/well of BlockAid (B10710, Thermo-Fisher) for 1 hour at RT on rocker at which point the blocking buffer is carefully aspirated. Primary antibody against the RSV F protein (MAB 858-1) is then diluted 1:2000 in SuperBlock (37515, Thermo Fisher) and 50 μL of the primary antibody solution is added to each well. The plates are incubated at room temperature for 1 hour with gentle agitation and then washed with 250 μL of PBS-Tween 3 times. A goat anti-mouse AlexaFluor 647 conjugated secondary antibody (Sigma, A21235) is then diluted 1:2000 and Hoescht 33342 (H3570) at 1:1000 in SuperBlock and 50 μL added to the wells for 1 hour at 37° C. After incubation the antibody solution is aspirated, and the wells are then washed with 250 μL of PBS-Tween 3 times. To keep cells from drying out, 100 μL of PBS is added to each well and the plates are sealed with black plate seal. Fluorescence at the 647 nm wavelength is measured using a Cellomics CellInsight CX7 machine. Compound activity is determined as a percentage of the % positive cells (or average intensity) compared to DMSO treated RSV infected well controls following subtraction of uninfected controls. The EC50 values are then calculated using nonlinear regression analysis in GraphPad Prism.

SMILES	EC50 [1]	EC50 (RSV strain A2)
CN(C)CCNc1cccc(CO[C@@H](CCCCCCCCCCCCCCCCCC(F)(F)F)COP(=O)(O)OC[C@@]2(C#N)O[C@@H](c3ccc4c(N)ncnn34)[C@H](O)[C@@H]2O)c1 [Compound 11, ((2R,3S,4R,5S)-5-(4-aminopyrrolo[2,1-f][1,2,4]triazin-7-yl)-2-cyano-3,4-dihydroxytetrahydrofuran-2-yl)methyl ((S)-2-((3-((2-(dimethylamino)ethyl)amino)benzyl)oxy)-20,20,20-trifluoroicosyl) hydrogen phosphate]	4590 nM	12600 nM
N#Cc1cc(F)cc(CO[C@H](CCCCCCCCCCCCCCCCCC(F)(F)F)COP(=O)(O)OC[C@@]2(C#N)O[C@@H](c3ccc4c(N)ncnn34)[C@H](O)[C@@H]2O)c1 [Compound 10, ((2R,3S,4R,5S)-5-(4-aminopyrrolo[2,1-f][1,2,4]triazin-7-yl)-2-cyano-3,4-dihydroxytetrahydrofuran-2-yl)methyl ((R)-2-((3-cyano-5-fluorobenzyl)oxy)-20,20,20-trifluoroicosyl) hydrogen phosphate]	117 nM	127 nM
N#C[C@]1(COP(=O)(O)OCCCCCCCCCCCCCCCCCCCC(F)(F)F)O[C@@H](c2ccc3c(N)ncnn23)[C@H](O)[C@@H]1O [Compound 5, ((2R,3S,4R,5S)-5-(4-aminopyrrolo[2,1-f][1,2,4]triazin-7-yl)-2-cyano-3,4-dihydroxytetrahydrofuran-2-yl)methyl (20,20,20-trifluoroicosyl) hydrogen phosphate]	4460 nM	3420 nM
N#Cc1cc(F)cc(CO[C@@H](CCCCCCCCCCCCCCCCCC(F)(F)F)COP(=O)(O)OC[C@@]2(C#N)O[C@@H](c3ccc4c(N)ncnn34)[C@H](O)[C@@H]2O)c1 [Compound 3, ((2R,3S,4R,5S)-5-(4-aminopyrrolo[2,1-f][1,2,4]triazin-7-yl)-2-cyano-3,4-dihydroxytetrahydrofuran-2-yl)methyl ((S)-2-((3-cyano-5-fluorobenzyl)oxy)-20,20,20-trifluoroicosyl) hydrogen phosphate]	44 nM	421 nM
N#Cc1cc(F)cc(CO[C@H](CCCCCCCCCCCCCCCCC(F)F)COP(=O)(O)OC[C@@]2(C#N)O[C@@H](c3ccc4c(N)ncnn34)[C@H](O)[C@@H]2O)c1 [Compound 4, ((2R,3S,4R,5S)-5-(4-aminopyrrolo[2,1-f][1,2,4]triazin-7-yl)-2-cyano-3,4-dihydroxytetrahydrofuran-2-yl)methyl ((R)-2-((3-cyano-5-fluorobenzyl)oxy)-19,19-difluorononadecyl) hydrogen phosphate]	107 nM	170 nM
N#Cc1cc(F)cc(CO[C@H](CCCCCCCCCCCCCCCCCCCC(F)(F)F)COP(=O)(O)OC[C@@]2(C#N)O[C@@H](c3ccc4c(N)ncnn34)[C@H](O)[C@@H]2O)c1 [Compound 8, ((2R,3S,4R,5S)-5-(4-aminopyrrolo[2,1-f][1,2,4]triazin-7-yl)-2-cyano-3,4-dihydroxytetrahydrofuran-2-yl)methyl ((R)-2-((3-cyano-5-fluorobenzyl)oxy)-22,22,22-trifluorodocosyl) hydrogen phosphate]	134 nM	237 nM
COc1cc(C#N)ccc1CO[C@@H](CCCCCCCCCCCCCCCCCC(F)(F)F)COP(=O)(O)OC[C@@]1(C#N)O[C@@H](c2ccc3c(N)ncnn23)[C@H](O)[C@@H]1O [Compound 9, ((2R,3S,4R,5S)-5-(4-aminopyrrolo[2,1-f][1,2,4]triazin-7-yl)-2-cyano-3,4-dihydroxytetrahydrofuran-2-yl)methyl ((S)-2-((4-cyano-2-methoxybenzyl)oxy)-20,20,20-trifluoroicosyl) hydrogen phosphate]	265 nM	215 nM
N#Cc1cc(F)cc(CO[C@@H](CCCCCCCCCCCCCCCCC(F)(F)F)COP(=O)(O)OC[C@@]2(C#N)O[C@@H](c3ccc4c(N)ncnn34)[C@H](O)[C@@H]2O)c1 [Compound 6, ((2R,3S,4R,5S)-5-(4-aminopyrrolo[2,1-f][1,2,4]triazin-7-yl)-2-cyano-3,4-dihydroxytetrahydrofuran-2-yl)methyl ((S)-2-((3-cyano-5-fluorobenzyl)oxy)-19,19,19-trifluorononadecyl) hydrogen phosphate]	86 nM	293 nM
N#C[C@]1(COP(=O)(O)OC[C@H](CCCCCCCCCCCCCCCCCC(F)(F)F)OCc2ccc3ccccc3n2)O[C@@H](c2ccc3c(N)ncnn23)[C@H](O)[C@@H]1O [Compound 7, ((2R,3S,4R,5S)-5-(4-aminopyrrolo[2,1-f][1,2,4]triazin-7-yl)-2-cyano-3,4-dihydroxytetrahydrofuran-2-yl)methyl ((S)-20,20,20-trifluoro-2-(quinolin-2-ylmethoxy)icosyl) hydrogen phosphate]	714 nM	1400 nM
